Measurements as given in the supplement of paper PMC10307832.

Tests used:
Assay in all cases: relative viability (nuclei count vs DMSO), 5 days (fraction); higher = more cells survive
[1] = compound: C[C@@H](C(=O)N[C@@H](C1CCCCC1)C(=O)N2CCC[C@H]2C(=O)N[C@@H]3[C@@H](CC4=CC=CC=C34)OCC#CC#CCO[C@@H]5CC6=CC=CC=C6[C@@H]5NC(=O)[C@@H]7CCCN7C(=O)[C@H](C8CCCCC8)NC(=O)[C@H](C)NC)NC [AZD5582] + CC(=O)c1c(C)c2cnc(Nc3ccc(N4CCNCC4)cn3)nc2n(C2CCCC2)c1=O [Palbociclib] (partner 0.5 µM)
Method in brief: (§1)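 Lung cancer cell lines in 1536-well plates got either a single drug or a fixed anchor-drug dose together with five library-drug doses (not always all listed) in √10 steps, by pin tool, on the day after seeding. Nuclei were counted after 5 days, and relative viability is the treated-to-vehicle ratio of nuclei counts. Values are medians of duplicate plates.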

[2] = compound: C[C@@H](C(=O)N[C@@H](C1CCCCC1)C(=O)N2CCC[C@H]2C(=O)N[C@@H]3[C@@H](CC4=CC=CC=C34)OCC#CC#CCO[C@@H]5CC6=CC=CC=C6[C@@H]5NC(=O)[C@@H]7CCCN7C(=O)[C@H](C8CCCCC8)NC(=O)[C@H](C)NC)NC [AZD5582] + CC1(C)CCC(c2ccc(Cl)cc2)=C(CN2CCN(c3ccc(C(=O)NS(=O)(=O)c4ccc(N[C@H](CCN5CCOCC5)CSc5ccccc5)c(S(=O)(=O)C(F)(F)F)c4)cc3)CC2)C1 [Navitoclax] (partner 0.5 µM)
Method in brief: as §1

[3] = compound: Cn1nnc2c(C(N)=O)ncn2c1=O [Temozolomide] + C[C@]1(O)C[C@@H](c2nc(-c3ccc4ccc(-c5ccccc5)nc4c3)c3c(N)nccn32)C1 [Linsitinib] (partner 1 µM)
Method in brief: as §1

[4] = compound: Cn1nnc2c(C(N)=O)ncn2c1=O [Temozolomide] + C[C@@H](Oc1cc(-c2cnn(C3CCNCC3)c2)cnc1N)c1c(Cl)ccc(F)c1Cl [Crizotinib] (partner 1 µM)
Method in brief: as §1

Cell Line	relative viability ([1]; first compound 0.001581 µM)	relative viability ([1]; first compound 0.005 µM)	relative viability ([1]; first compound 0.01581 µM)	relative viability ([1]; first compound 0.05 µM)	relative viability ([2]; first compound 0.001581 µM)	relative viability ([2]; first compound 0.005 µM)	relative viability ([2]; first compound 0.05 µM)	relative viability ([3]; first compound 0.2 µM)	relative viability ([3]; first compound 0.6325 µM)	relative viability ([3]; first compound 2 µM)	relative viability ([3]; first compound 6.325 µM)	relative viability ([3]; first compound 20 µM)	relative viability ([4]; first compound 0.2 µM)	relative viability ([4]; first compound 0.6325 µM)	relative viability ([4]; first compound 2 µM)	relative viability ([4]; first compound 6.325 µM)	relative viability ([4]; first compound 20 µM)	relative viability ([2]; first compound 0.01581 µM)
NCI-H2405	0.474	0.505	0.475	0.433	0.875	1.21	0.866	0.707	0.924	1.09	0.858	0.95	0.882	0.863	0.955	0.771	0.822	
NCI-H3122	0.197	0.185	0.181	0.143	1.04	1.03	0.619	0.963	1.02	1.02	0.985	0.98	0.291	0.281	0.324	0.264	0.235	1.01
PC-3 [JPC-3]	0.483	0.512	0.58	0.478	0.752	0.727	0.486	0.932	0.975	0.941	0.987	0.499	0.993	0.951	1.03	0.974	0.458	0.664
PC-14	0.401	0.322	0.47	0.34	1.06	0.967	1.11	0.96	0.942	0.984	0.871	0.837	0.954	0.902	0.829	0.812	0.732	0.969
RERF-LC-KJ	0.354	0.494	1.03	0.27	0.375		0.295	0.928	0.888	0.948	0.982	0.868	0.884	0.848	0.838	0.818	0.833	0.825
